According to patent US8822410B2, “Tympanic membrane permeating ear drops and uses thereof” (Children's Medical Center Corporation, priority 2008, dated 2014):

Assays:
[1] = test system: H. influenza; conditions: middle ear infections; cited from earlier work
[2] = test system: S. pneumoniae; conditions: middle ear infections; cited from earlier work
[3] = pH of ciprofloxacin solutions; type: physicochemical; conditions: 1% ciprofloxacin solution

Structure (SMILES): O=C(O)c1cn(C2CC2)c2cc(N3CCNCC3)c(F)cc2c1=O [ciprofloxacin]
- minimum inhibitory concentration [1]: about 4 μg/mL
- minimum inhibitory concentration [2]: about 4 μg/mL
- pH of ciprofloxacin solution [3]: 3-4
